In US10781262B2, “Combination therapy of T cell activating bispecific antigen binding molecules and PD-1 axis binding antagonists” (Hoffmann-La Roche Inc., priority 2014, dated 2020):

Columns and labels:
[1] = test system: FolR1 expressing tumor cells and FolR1 negative cell line MKN-45; experiment: Flow cytometry binding to tumor cells with different FolR1 expression levels; design: species or system human
Source text: FIGS. 6A-E depict graphs summarizing binding of FolR1 IgGs to cells with different FolR1 expression levels. […] DP47 IgG was included as isotype control and MKN-45 were included as FolR1 negative cell line.
The used panel of tumor cells contains FolR1 high, intermediate and low expressing tumor cells and a FolR1 negative cell line.
The amount of bound construct is proportional to the FolR1 expression level and there is still good binding of the constructs to the FolR1 low cell line HT-29 detectable. […] DP47 TCB is an untargeted TCB and was prepared as described in WO2014/131712.

SKOV3 cells = experiment: T cell mediated killing (LDH release); format: cell-based, human; conditions: SKOV3 and HT-29 cells
Experimental: (§1) FIGS. 7A-L depict graphs summarizing T cell mediated killing of HT-29 and SKOV3 cells. FolR1 TCBs were used to test T cell mediated killing of HT-29 and SKOV3 tumor cells and upregulation of activation marker on T cells upon killing. […] DP47 TCB was included as negative control. After 48 h incubation upregulation of the activation marker CD25 and CD69 on CD8 T cells and CD4 T cells upon killing of SKOV3 (FIGS. 7E-H) or HT-29 (FIG. 7I-L) tumor cells was assessed by flow cytometry.
(§2) Overall killing of SKOV3 cells was higher compared to HT-29 which reflects the higher expression levels of FolR1 on SKOV3 cells (FIGS. 7A-D). In line with this, a strong upregulation of the activation marker CD25 and CD69 on CD4^+ T cells and CD8^+ T cells was detected. Activation of T cells was very similar in the presence of SKOV3 cells and HT-29 cells.

[2] = test system: CD4 and CD8 T cells with SKOV3 cells; experiment: T cell activation upon killing (CD25, CD69, flow cytometry); format: cell-based, human; conditions: SKOV3 and HT-29 cells
Experimental: as §1, §2

[3] = test system: T cells in FolR1 positive tumor digests or malignant effusions; experiment: Ex vivo treatment of tumor samples with FolR1-TCB (T cell activation); format: cell-based, human
Experimental: FolR1 positive tumor digests or malignant effusions were thawed, washed and plated in 96-well flat bottom cell culture plates (BD Falcon) with a density of 3×10^5 cells/200 μl/well in complete medium (DMEM+Sodium Pyruvate (1 mM)+MEM non essential AA (1×)+L-Glutamin (2 mM)+Penicillin/Streptomycin ([…])+2-Mercaptoethanol ([…])+Ciproxin (1 mg/ml)+10% human Serum). The samples were cultured in the presence or absence of FolR1-TCB or DP47 TCB at a concentration of 2 nM for 24h. Activation of CD8+ and CD4^+ T cells (CD45^+CD3+) upon FolR1-TCB treatment was determined by multicolor flow cytometry by measuring the expression of the cell surface markers CD25, CD69, CD137, ICOS, PD-1 and Tim-3. Furthermore the expression of granzyme B and IFN-γ was determined by intracellular staining.
To determine FolR1-TCB induced T cell activation, tumor samples were cultured in the presence or absence of FolR1-TCB or the control TCB DP-47. Then, T cells were characterized by multicolor flow cytometry for expression of activation markers and T cell effector functions, as described above. […] FolR1-TCB-induced perforin secretion was highly variable in TILs, and severely impaired in a subset of patients (FIG. 12N).

[4] = test system: CFSE-labelled Skov3 cells; experiment: Killing assay with tumor samples; format: cell-based, human
Experimental: To determine the FolR1-TCB induced tumor cell killing, 3×10^4 CFSE-labelled Skov3 cells were cocultured with tumor samples in the presence or absence of FolR1-TCB at a concentration of 2 nM for 24h in 96-well flat bottom cell culture plates. The E:T ratio (E: effector CD45^+CD3^+ cells; T: target FolR1^+ cells from tumor and added Skov3 cells) was adjusted to 1:1 in each well and the cell number of the added tumor samples was calculated for each sample according to prior characterization by flow cytometry. Cell death of Skov3 cells was determined by flow cytometry by measuring activated caspase 3 and the live/dead marker Live/Dead-near-IR. The assay was performed in triplicates. The FolR1-TCB mediated killing was calculated according to the following equation: % of specific killing=100−[(% of Skov3 live cells in FolR1-TCB treated sample/% of Skov3 live cells in untreated sample)×100].
To compare the FolR1-TCB-induced killing capacity of T-cells between tumor samples, and to exclude additional factors suppressing T-cell functionality, such as expression of PD-L1 on the tumor cells, we exogenously added CFSE-labeled FolR1^+ Skov3 cells to the tumor digests and adjusted the E:T ratio to 1:1, essentially as described above. We then measured the FolR1-TCB-induced killing of CFSE-labeled Skov3 cells, which allowed us to also include FolR1^− tumor samples into the analysis. […]

[5] = test system: CD8^+ T-cells with FolR1^+ ovarian cancer cell line Skov3; experiment: PBMCs from healthy donors co-cultured with Skov3 cells, FolR1-TCB; format: cell-based, human; conditions: 0.6 pM to 2 nM for 24 h
Experimental: FIGS. 40A-C show activation of CD8^+ T-cells upon exposure to increasing concentrations of FolR1-TCB. PBMCs were co-cultured with Skov3 cells for 24 h in the presence or absence of FolR1-TCB or the unspecific control DP-47-TCB. […] Shaded histogram: isotype control; open histogram: anti-FolR1-antibody. FIG. 40B: The expression of the activation markers CD25, CD137, and ICOS on CD8^+ T-cells was determined by flow cytometry.
To assess the effect of FolR1-TCB on T-cell activation peripheral blood mononuclear cells (PBMCs) from healthy donors were co-cultured with the FolR1^+ ovarian cancer cell line Skov3 (FIG. 40A). […] In addition, T-cells secreted IL-2, IFN-γ, and TNF.

[6] = test system: T cells in EpCAM positive tumor digests or malignant effusions; experiment: Ex vivo treatment of tumor samples with catumaxomab; format: cell-based, human; conditions: 10 ng/ml, 24h; 4 NSCLC tumor digests
Experimental: The trifunctional TCB catumaxomab (Removab®) was obtained from Fresenius. The experimental conditions were similar as indicated above for FolR1-TCB. Briefly, EpCAM positive tumor digests or malignant effusions were cultured in the presence or absence of catumaxomab at a concentration of 10 ng/ml for 24h. Analysis of CD8÷ and CD4^+ positive T cells (CD45^+CD3+) was performed as described above.
To determine to which extent catumaxomab induces T cell activation and to confirm the findings described above using a second, independent T cell bispecific molecule, 4 tumor digests from patients with NSCLC were exposed to catumaxomab, a trifunctional bispecific antibody recognizing CD3 on T cells and EpCAM on tumor cells. Then, T cells were characterized by flow cytometry for expression of activation markers and T cell effector functions (FIG. 17A-D). […] Accordingly, the baseline expression of inhibitory receptors differed between the patients (FIG. 17E-H).

T cells in tumor digests = experiment: Polyclonal stimulation with anti-CD3/CD28 antibodies and PD-1 blockade; format: cell-based, human; conditions: 10 μg/ml, 24 hrs
[7] = test system: T cells in FolR1^+ tumor digests or malignant effusions; experiment: FolR1-TCB with PD-1 blockade in tumor digests or malignant effusions; format: cell-based, human; conditions: combination with FolR1-TCB
Experimental: FIG. 38A-D: FolR1^+ tumor digests or malignant effusions were cultured for 24 h with FolR1-TCB in the presence or absence of a PD-1 blocking antibody. […] The increase in cytokine secretion upon combined FolR1-TCB and anti-PD-1 treatment compared with FolR1-TCB alone was determined in PD-1^hi scarce and abundant tumors. FIG. 38E: Tumor digests or malignant effusions were co-cultured with exogenously added fluorescently labeled Skov3 cells at an E:T ratio of 1:1 for 24 h in the presence or absence of a PD-1 blocking antibody and FolR1-TCB. The increase in specific killing by the anti-PD-1 antibody was compared in PD-1^hi scarce and abundant tumors. p-values were calculated using the unpaired Mann-Whitney test.
As the level of PD-1 expression on TILs correlates with the efficacy of FolR1-TCB, we analyzed whether blockade of the PD-1/PD-L1 axis in combination with FolR1-TCB treatment might be able to restore T-cell function.

DP47 TCB: untargeted TCB, negative control, prepared as described in WO2014/131712
binding to panel of tumor cell lines [1]: no binding | T cell mediated killing (in words) (SKOV3 cells): does not induce any killing | upregulation of CD25 and CD69 on T cells (in words) [2]: no significant upregulation of CD25 and CD69 on T cells | T cell activation in tumor samples (in words) [3]: did not induce any T cell activation | tumor cell killing (in words) [4]: did not induce any tumor cell killing | activation of CD8^+ T-cells (in words) [5]: did not induce any T-cell activation

catumaxomab
catumaxomab induced T cell activation (in words) [6]: striking heterogeneity in catumaxomab induced T cell activation

nivolumab: PD-1 blocking antibody
restoration of T cell effector function by PD-1 blockade (in words) (T cells in tumor digests): could restore T cell effector function such as production and secretion of IL-2, IFN-γ and TNF-α only in some patients | secretion of IFN-γ, TNF, IL-2 and perforin upon combined treatment with FolR1-TCB (in words) ([7]; 24 h): could be increased only in some of the PD-1^hi scarce tumors | cytotoxic tumor cell killing upon additional PD-1 blockade (in words) ([7]; Skov3 cells E:T 1:1): could neither be improved
